Measured values from patent publication US11014911B2, “CDK2 inhibitors” (Pfizer Inc., priority 2019, dated 2021).

Target: CDK2/Cyclin E1 full length (Homo sapiens (Human), UniProt P24941)
Test: CDK2/Cyclin E1 full length mobility shift assay
Assay type: biochemical
Protocol: Cdk2/Cyclin E1 Full Length Mobility Shift Assay
Wild-type CDK2/wild-type full length Cyclin E1 enzyme complex was produced in-house (baculoviral expression, LJIC-2080/LJIC-2103) and phosphorylated by CDK7/Cyclin H1/Matl enzyme complex with CDK2:CDK7 ratio of 50:1 (concentration mg/mL) in the presence of 10 mM MgCl2 and 5 mM ATP at room temperature for one hour. […] The assay was initiated with the addition of ATP, following a fifteen minutes pre-incubation of enzyme and inhibitor at room temperature in the reaction mixture. The reaction was stopped after 45 minutes at room temperature by the addition of 50 μL of 80 mM EDTA.

| SMILES | Ki [nM] |
| --- | --- |
| CC1(NC(=O)O[C@@H]2CC[C@H](c3cc(NC(=O)CC4COc5ccccc54)n[nH]3)C2)CCOC1 (stereo partly drawn) [Example 491, (1R,3S)-3-(3-{[(3ξ)-2,3-dihydro-1-benzofuran-3-ylacetyl]amino}-1H-pyrazol-5-yl)cyclopentyl [(3ξ)-3-methyltetrahydrofuran-3-yl]carbamate] | 3.87 |
| CC1(NC(=O)O[C@@H]2CC[C@H](c3cc(NC(=O)Cc4cscn4)n[nH]3)C2)CC1 [Example 423, (1R,3S)-3-{3-[(1,3-thiazol-4-ylacetyl)amino]-1H-pyrazol-5-yl}cyclopentyl (1-methylcyclopropyl)carbamate] | 0.6 |
| CC(C)(C)NC(=O)O[C@@H]1CC[C@H](c2cc(NC(=O)Cc3ccc(F)cn3)n[nH]2)C1 [Example 300, (1R,3S)-3-(3-{[(5-fluoropyridin-2-yl)acetyl]amino}-1H-pyrazol-5-yl)cyclopentyl tert-butylcarbamate] | 0.65 |
| Cc1ncc(CC(=O)Nc2cc([C@H]3CC[C@@H](OC(=O)NCC(F)(F)F)C3)[nH]n2)s1 [Example 254, (1R,3S)-3-(3-{[(2-methyl-1,3-thiazol-5-yl)acetyl]amino}-1H-pyrazol-5-yl)cyclopentyl (2,2,2-trifluoroethyl)carbamate] | 2.17 |
| COc1cnc(CC(=O)Nc2cc([C@H]3CC[C@@H](OC(=O)NCCC(F)(F)F)C3)[nH]n2)s1 [Example 223, (1R,3S)-3-(3-{[(5-methoxy-1,3-thiazol-2-yl)acetyl]amino}-1H-pyrazol-5-yl)cyclopentyl (3,3,3-trifluoropropyl)carbamate] | 2.33 |
| CC1(NC(=O)O[C@@H]2CC[C@H](c3cc(NC(=O)Cc4ccon4)n[nH]3)C2)CC1 [Example 419, (1R,3S)-3-{3-[(1,2-oxazol-3-ylacetyl)amino]-1H-pyrazol-5-yl}cyclopentyl (1-methylcyclopropyl)carbamate] | 0.36 |
| Cc1cc(CC(=O)Nc2cc([C@H]3CC[C@@H](OC(=O)NC(C)C)C3)[nH]n2)no1 [Example 269, (1R,3S)-3-(3-{[(5-methyl-1,2-oxazol-3-yl)acetyl]amino}-1H-pyrazol-5-yl)cyclopentyl propan-2-ylcarbamate] | 1.68 |
| CC[C@H](C)NC(=O)O[C@@H]1CC[C@H](c2cc(NC(=O)Cc3cn4ccc(C)nc4n3)n[nH]2)C1 [Example 357, (1R,3S)-3-(3-{[(7-methylimidazo[1,2-a]pyrimidin-2-yl)acetyl]amino}-1H-pyrazol-5-yl)cyclopentyl (2S)-butan-2-ylcarbamate] | 4.08 |
| CC(CO)CNC(=O)O[C@@H]1CC[C@H](c2cc(NC(=O)Cc3cc(F)cc(F)c3)n[nH]2)C1 (single isomer, unassigned) [Example 538] | 2.72 |
| COCCn1nccc1C(=O)Nc1cc([C@H]2CC[C@@H](OC(=O)N3CC[C@H]3C)C2)[nH]n1 [Example 593, (1R,3S)-3-[3-({[1-(2-methoxyethyl)-1H-pyrazol-5-yl]carbonyl}amino)-1H-pyrazol-5-yl]cyclopentyl (2R)-2-methylazetidine-1-carboxylate] | 2.21 |
| COc1cnc(CC(=O)Nc2cc([C@H]3CC[C@@H](OC(=O)N4CC[C@@H]4C)C3)[nH]n2)cn1 [Example 592, (1R,3S)-3-(3-{[(5-methoxypyrazin-2-yl)acetyl]amino}-1H-pyrazol-5-yl)cyclopentyl (2S)-2-methylazetidine-1-carboxylate] | 2.27 |
| O=C(Cc1ccc(C(F)(F)F)nc1)Nc1cc([C@@H]2CC[C@H](OC(=O)NC[C@H]3C[C@@H]3CO)C2)[nH]n1 [Example 580, (1S,3R)-3-[3-({[6-(trifluoromethyl)pyridin-3-yl]acetyl}amino)-1H-pyrazol-5-yl]cyclopentyl {[(1S,2S)-2-(hydroxymethyl)cyclopropyl]-methyl}carbamate] | 3.38 |
| O=C(Cc1cc(F)cc(F)c1)Nc1cc([C@@H]2CC[C@H](OC(=O)NCC3CCCOC3)C2)[nH]n1 (single isomer, unassigned) [Example 516] | 3.24 |
| C[C@H]1CCN1C(=O)O[C@@H]1CC[C@H](c2cc(NC(=O)c3ccnn3CCN(C)C)n[nH]2)C1 [Example 596, (1R,3S)-3-{3-[({1-[2-(dimethylamino)ethyl]-1H-pyrazol-5-yl}carbonyl)amino]-1H-pyrazol-5-yl}cyclopentyl (2S)-2-methylazetidine-1-carboxylate] | 1.75 |
| O=C(Cc1cc(F)cc(F)c1)Nc1cc([C@H]2CC[C@@H](OC(=O)NC3CCOCC3)C2)[nH]n1 [Example 505, (1R,3S)-3-(3-{[(3,5-difluorophenyl)acetyl]amino}-1H-pyrazol-5-yl)cyclopentyl tetrahydro-2H-pyran-4-ylcarbamate] | 1.6 |
| CC[C@H](C)NC(=O)O[C@@H]1CC[C@H](c2cc(NC(=O)Cc3cnc(OC)cn3)n[nH]2)C1 [Example 347, (1R,3S)-3-(3-{[(5-methoxypyrazin-2-yl)acetyl]amino}-1H-pyrazol-5-yl)cyclopentyl (2S)-butan-2-ylcarbamate] | 0.37 |
| CC1(NC(=O)O[C@@H]2CC[C@H](c3cc(NC(=O)Cc4ccno4)n[nH]3)C2)CCOC1 (single isomer, unassigned) [Example 474] | 0.44 |

| SMILES | Ki [nM] |
| --- | --- |
| O=C(Cc1ccc(C(F)(F)F)nc1)Nc1cc([C@@H]2CC[C@H](OC(=O)NCC3CCOCC3)C2)[nH]n1 [Example 514, (1S,3R)-3-[3-({[6-(trifluoromethyl)pyridin-3-yl]acetyl}amino)-1H-pyrazol-5-yl]cyclopentyl (tetrahydro-2H-pyran-4-ylmethyl)carbamate] | 2.78 |
| Cn1ncc(CC(=O)Nc2cc([C@H]3CC[C@@H](OC(=O)NC4(C)CCOC4)C3)[nH]n2)c1C(F)(F)F (single isomer, unassigned) [Example 496] | 2.25 |
| CC[C@H](C)NC(=O)O[C@@H]1CC[C@H](c2cc(NC(=O)Cc3ccccc3S(C)(=N)=O)n[nH]2)C1 (single isomer, unassigned) [Example 368] | 0.41 |
| COCc1cc(C(=O)Nc2cc([C@H]3CC[C@@H](OC(=O)NC4(C)CCOC4)C3)[nH]n2)n(C)n1 (single isomer, unassigned) [Example 488] | 1.4 |
| CC(C)(C)NC(=O)O[C@@H]1CC[C@H](c2cc(NC(=O)Cc3cc(C(F)(F)F)ccn3)n[nH]2)C1 [Example 316, (1R,3S)-3-[3-({[4-(trifluoromethyl)pyridin-2-yl]acetyl}amino)-1H-pyrazol-5-yl]cyclopentyl tert-butylcarbamate] | 1.3 |
| CC[C@H](C)CNC(=O)O[C@@H]1CC[C@H](c2cc(NC(=O)Cc3cnc(C)o3)n[nH]2)C1 [Example 416, (1R,3S)-3-(3-{[(2-methyl-1,3-oxazol-5-yl)acetyl]amino}-1H-pyrazol-5-yl)cyclopentyl [(2S)-2-methylbutyl]carbamate] | 2.27 |
| CCCNC(=O)O[C@H]1CC[C@@H](c2cc(NC(=O)Cc3ccnc(OC)c3O)n[nH]2)C1 [Example 194, (1S,3R)-3-(3-{[(3-hydroxy-2-methoxypyridin-4-yl)acetyl]amino}-1H-pyrazol-5-yl)cyclopentyl propylcarbamate] | 0.8 |
| Cc1cn(CC(=O)Nc2cc([C@H]3CC[C@@H](OC(=O)NC(C)(C)C)C3)[nH]n2)nn1 [Example 297, (1R,3S)-3-(3-{[(4-methyl-1H-1,2,3-triazol-1-yl)acetyl]amino}-1H-pyrazol-5-yl)cyclopentyl tert-butylcarbamate] | 1.17 |
| C[C@H]1CCN1C(=O)O[C@@H]1CC[C@H](c2cc(NC(=O)c3cncn3C)n[nH]2)C1 [Example 585, (1R,3S)-3-(3-{[(1-methyl-1H-imidazol-5-yl)carbonyl]amino}-1H-pyrazol-5-yl)cyclopentyl (2S)-2-methylazetidine-1-carboxylate] | 2.57 |
| CCC1(NC(=O)O[C@@H]2CC[C@H](c3cc(NC(=O)Cc4ncc(C)o4)n[nH]3)C2)CC1 [Example 448, (1R,3S)-3-(3-{[(5-methyl-1,3-oxazol-2-yl)acetyl]amino}-1H-pyrazol-5-yl)cyclopentyl (1-ethylcyclopropyl)carbamate] | 0.29 |
| CCCNC(=O)O[C@@H]1CC[C@H](c2cc(NC(=O)Cc3ccccc3S(=O)(=O)NC)n[nH]2)C1 [Example 209, (1R,3S)-3-[3-({[2-(methylsulfamoyl)-phenyl]acetyl}amino)-1H-pyrazol-5-yl]cyclopentyl propylcarbamate] | 1.21 |
| COc1ccc(CC(=O)Nc2cc([C@@H]3CC[C@H](OC(=O)N[C@H]4CC[C@H](O)CC4)C3)[nH]n2)cn1 [Example 556, (1S,3R)-3-(3-{[(6-methoxypyridin-3-yl)acetyl]amino}-1H-pyrazol-5-yl)cyclopentyl (trans-4-hydroxycyclohexyl)carbamate] | 0.46 |
| CC[C@H](C)NC(=O)O[C@@H]1CC[C@H](c2cc(NC(=O)Cc3cncc(C(F)(F)F)n3)n[nH]2)C1 [Example 362, (1R,3S)-3-[3-({[6-(trifluoromethyl)pyrazin-2-yl]acetyl}amino)-1H-pyrazol-5-yl]cyclopentyl (2S)-butan-2-ylcarbamate] | 0.84 |
| O=C(Cc1ccno1)Nc1cc([C@H]2CC[C@@H](OC(=O)NCC3CC3)C2)[nH]n1 [Example 465, (1R,3S)-3-{3-[(1,2-oxazol-5-ylacetyl)amino]-1H-pyrazol-5-yl}cyclopentyl (cyclopropylmethyl)carbamate] | 1.95 |
| CC1(NC(=O)O[C@@H]2CC[C@H](c3cc(NC(=O)Cc4ccccn4)n[nH]3)C2)CC1 [Example 420, (1R,3S)-3-{3-[(pyridin-2-ylacetyl)amino]-1H-pyrazol-5-yl}cyclopentyl (1-methylcyclopropyl)carbamate] | 0.54 |
| CC1(NC(=O)O[C@@H]2CC[C@H](c3cc(NC(=O)Cc4cc(C(F)F)ccn4)n[nH]3)C2)CC1 [Example 443, (1R,3S)-3-[3-({[4-(difluoromethyl)pyridin-2-yl]acetyl}amino)-1H-pyrazol-5-yl]cyclopentyl (1-methylcyclopropyl)carbamate] | 0.36 |
| COc1cc(CC(=O)Nc2cc([C@H]3CC[C@@H](OC(=O)NC(C)C)C3)[nH]n2)c(OC)cn1 [Example 285, (1R,3S)-3-(3-{[(2,5-dimethoxypyridin-4-yl)acetyl]amino}-1H-pyrazol-5-yl)cyclopentyl propan-2-ylcarbamate] | 3.97 |
